Experimental findings from ChEMBL document CHEMBL1156891, “Pyrrolidine amides of pyrazolodihydropyrimidines as potent and selective KV1.5 blockers” (Bioorg Med Chem Lett, 2010) are described below.

Data set [1] has as its target Potassium voltage-gated channel subfamily A member 5 (Homo sapiens, UniProt P22460). Put plainly: Inhibition of human Kv1.5 channel expressed in mouse L929 cells. In kind it is cell-based. Details: concentration or dose not given beside the values. Particulars: for inhibition: concentration not given here.
The nature of data set [2]: Clearance in rat at 10 µmol/kg, intra-arterial infusion. The conditions noted are these: in vivo.
The nature of data set [3]: Fraction unbound in rabbit plasma at 10 mg/kg, iv. Details: dose 10 mg/kg, route intravenous. The class given is ADME, organism-based, Oryctolagus cuniculus.
Data set [4] deals with Oryctolagus cuniculus. Put plainly: Plasma concentration in rabbit at 10 mg/kg, iv. The class given is ADME, organism-based. More on the design: dose 10 mg/kg, route intravenous. The conditions noted are these: in vivo.
Data set [5] concerns Oryctolagus cuniculus. Put plainly: Prolongation of atrial effective refractory period in rabbit at 0.3 mg/kg, iv relative to vehicle control. In kind it is functional, Cardiac atrium.
Data set [6] concerns Oryctolagus cuniculus. Put plainly: Prolongation of atrial effective refractory period in rabbit at 1 mg/kg, iv relative to vehicle control. The class given is functional, Cardiac atrium.
Data set [7] is described as follows: Terminal half life in rat at 10 µmol/kg, intra-arterial infusion. The conditions noted are these: in vivo, read-out: beta t1/2 (converted).
Data set [8] has as its system Oryctolagus cuniculus. The data set can be described thus: Prolongation of atrial effective refractory period in rabbit at 3 mg/kg, iv relative to vehicle control. The class given is functional, Cardiac atrium.
Data set [9] can be described thus: Terminal half life in dog at 10 µmol/kg, intra-arterial infusion. The conditions noted are these: in vivo, read-out: beta t1/2 (converted).
For data set [10], the system named is Oryctolagus cuniculus. Put plainly: Prolongation of atrial effective refractory period in rabbit at 10 mg/kg, iv relative to vehicle control. The class given is functional, Cardiac atrium.
The nature of data set [11]: Clearance in dog at 10 µmol/kg, intra-arterial infusion. Particulars: in vivo.
Data set [12] is described as follows: Volume of distribution at steady state in rat at 10 µmol/kg, intra-arterial infusion. The conditions noted are these: in vivo, read-out: Vdss.
The nature of data set [13]: Oral bioavailability in rat at 20 µmol/kg, po. Particulars: in vivo.
The nature of data set [14]: Oral bioavailability in dog at 20 µmol/kg, po. Particulars: in vivo.
Data set [15] is described as follows: Volume of distribution at steady state in dog at 10 µmol/kg, intra-arterial infusion. Particulars: in vivo, read-out: Vdss.

Sequence of Potassium voltage-gated channel subfamily A member 5 (P22460 whole entry, the tested form may be a part): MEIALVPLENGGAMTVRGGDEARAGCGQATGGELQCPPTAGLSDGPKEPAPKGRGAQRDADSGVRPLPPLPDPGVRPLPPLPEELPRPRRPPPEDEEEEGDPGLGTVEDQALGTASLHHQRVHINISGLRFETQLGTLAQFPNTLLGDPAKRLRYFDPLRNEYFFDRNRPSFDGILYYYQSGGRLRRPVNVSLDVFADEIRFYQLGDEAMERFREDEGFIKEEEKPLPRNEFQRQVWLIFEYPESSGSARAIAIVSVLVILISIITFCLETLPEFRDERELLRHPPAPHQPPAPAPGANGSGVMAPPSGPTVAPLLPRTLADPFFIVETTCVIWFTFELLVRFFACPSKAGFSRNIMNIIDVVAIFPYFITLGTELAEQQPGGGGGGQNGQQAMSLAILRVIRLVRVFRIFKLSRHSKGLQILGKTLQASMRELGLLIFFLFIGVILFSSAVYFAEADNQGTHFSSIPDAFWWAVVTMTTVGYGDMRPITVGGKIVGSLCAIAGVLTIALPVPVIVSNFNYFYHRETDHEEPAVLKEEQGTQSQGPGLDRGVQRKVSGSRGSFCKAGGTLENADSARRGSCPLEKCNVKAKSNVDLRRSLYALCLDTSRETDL

As to `CC1=C(C(=O)N2CCC[C@H]2c2nc(C)no2)C(c2ccc(Cl)c(Cl)c2)n2nccc2N1` (stereo in doubt; 13a) [listing 1 of 2 here], the inhibition (commonly the relative decrease from the control value, in per cent) in [1] was 22%.
For the compound `CC1=C(C(=O)N2CCC[C@H]2c2nnc[nH]2)C(c2ccc(Cl)c(Cl)c2)n2nccc2N1` (stereo in doubt; 17a) [listing 1 of 2 here], in data set [1], the IC50 (usually the concentration that gives 50% inhibition) was over 1000 nM.
On to `CC1=C(C(=O)N2CCCC2c2ccc(F)cc2)C(c2ccc(Cl)c(Cl)c2)n2nccc2N1` (mixture of isomers; 7), for which, in data set [1], 70 nM corresponded to half-maximal inhibition (IC50).
The compound `CC1=C(C(=O)N2CCC[C@H]2c2cc(C)no2)C(c2ccc(Cl)c(Cl)c2)n2nccc2N1` (stereo in doubt; 20b) had an IC50 in data set [1] of 110 nM.
Take `CC1=C(C(=O)N2CCCC2c2ccccn2)C(c2ccc(Cl)c(Cl)c2)n2nccc2N1` (centres undefined): the IC50 in data set [1] stood at 660 nM.
`CC1=C(C(=O)N2CCC[C@H]2c2nnn[nH]2)C(c2ccc(Cl)c(Cl)c2)n2nccc2N1` (stereo in doubt; 14a) [listing 1 of 2 here] showed an inhibition in [1] of 4%.
In [1], `CC1=C(C(=O)N2CCC[C@H]2c2nnc(N)s2)C(c2ccc(Cl)c(Cl)c2)n2nccc2N1` (some centres undefined) had an IC50 of over 1000 nM and an inhibition of 4%.
Take `CC1=C(C(=O)N2CCCC2c2ccccc2)C(c2ccc(Cl)c(Cl)c2)n2nccc2N1` (centres undefined): 150 nM corresponded to half-maximal inhibition in data set [1] (IC50).
With `CC1=C(C(=O)N2CCC[C@H]2c2cc(C)on2)C(c2ccc(Cl)c(Cl)c2)n2nccc2N1` (stereo in doubt; 21a) [listing 1 of 2 here], in [1], the inhibition is 38%.
Regarding `CC1=C(C(=O)N2CCC[C@H]2c2cc(C)no2)C(c2ccc(Cl)c(Cl)c2)n2nccc2N1` (stereo in doubt; 20a) [listing 1 of 2 here], the IC50 in data set [1] is over 1000 nM.
In the case of `CC1=C(C(=O)N2CCC[C@H]2c2cc(C)on2)C(c2ccc(Cl)c(Cl)c2)n2nccc2N1` (stereo in doubt; 21b), the IC50 in data set [1] stood at 90 nM.
Take `CC1=C(C(=O)N2CCC[C@H]2c2cc(C)on2)C(c2ccc(Cl)c(Cl)c2)n2nccc2N1` (stereo in doubt; 21a) [listing 2 of 2 here]: the half-inhibitory concentration (IC50) in data set [1] was over 1000 nM.
Turning to `CC1=C(C(=O)N2CCC[C@H]2c2nnc[nH]2)C(c2ccc(Cl)c(Cl)c2)n2nccc2N1` (stereo in doubt; 17a) [listing 2 of 2 here], the inhibition in data set [1] amounted to 19%.
`COC(=O)[C@@H]1CCCN1C(=O)C1=C(C)Nc2ccnn2C1c1ccc(Cl)c(Cl)c1` (some centres undefined): it took 150 nM to reach half-maximal inhibition in data set [1] (IC50).
In data set [1], `CC1=C(C(=O)N2CCCC2c2ccc(F)cc2)C(c2ccc(Cl)c(Cl)c2)n2nccc2N1` (mixture of isomers; 7b) showed an IC50 of 1800 nM.
With `CC1=C(C(=O)N2CCC[C@H]2c2nnn(C)n2)C(c2ccc(Cl)c(Cl)c2)n2nccc2N1` (some centres undefined), it took 480 nM to reach half-maximal inhibition in [1] (IC50).
`CC1=C(C(=O)N2CCC[C@H]2c2nnc[nH]2)C(c2ccc(Cl)c(Cl)c2)n2nccc2N1` (stereo in doubt; 17b): the inhibition in data set [1] was 3%.
`CC1=C(C(=O)N2CCC[C@H]2c2nc(C)no2)C(c2ccc(Cl)c(Cl)c2)n2nccc2N1` (stereo in doubt; 13a) [listing 2 of 2 here] returned an IC50 in data set [1] of over 1000 nM.
For `CC1=C(C(=O)N2CCC(c3ccc(F)cc3)C2)C(c2ccc(Cl)c(Cl)c2)n2nccc2N1` (centres undefined), the IC50 in data set [1] was found to be 160 nM.
In data set [1], `COC[C@H]1CCCN1C(=O)C1=C(C)Nc2ccnn2C1c1ccc(Cl)c(Cl)c1` (some centres undefined) showed an IC50 of over 1000 nM and an inhibition of 32%.
The compound `CC1=C(C(=O)N2CCC[C@H]2c2nnn[nH]2)C(c2ccc(Cl)c(Cl)c2)n2nccc2N1` (stereo in doubt; 14a) [listing 2 of 2 here] showed an IC50 in data set [1] of over 1000 nM.
In the case of `CC1=C(C(=O)N2CCC[C@H]2c2nnn[nH]2)C(c2ccc(Cl)c(Cl)c2)n2nccc2N1` (stereo in doubt; 14b), the inhibition in [1] was determined as 8%.
In [1], `CC1=C(C(=O)N2CCCC2c2cccnc2)C(c2ccc(Cl)c(Cl)c2)n2nccc2N1` (centres undefined) returned an IC50 of over 1000 nM and an inhibition of 35%.
As for `CC1=C(C(=O)N2CCCC2c2ccc(F)cc2)C(c2ccc(Cl)c(Cl)c2)n2nccc2N1` (mixture of isomers; 7c), inhibition in data set [1] was half-maximal at 150 nM (IC50).
`CC1=C(C(=O)N2CCC[C@H]2c2n[nH]c(=O)n2C)C(c2ccc(Cl)c(Cl)c2)n2nccc2N1` (some centres undefined): in [1], the IC50 was over 1000 nM and the inhibition is 11%.
In data set [1], `CC1=C(C(=O)N2CCCC2c2ccncc2)C(c2ccc(Cl)c(Cl)c2)n2nccc2N1` (centres undefined) yielded an IC50 of 310 nM.
Same read-out and setting: as for `CC1=C(C(=O)N2CCCC2c2ccc(F)cc2)C(c2ccc(Cl)c(Cl)c2)n2nccc2N1` (mixture of isomers; 7a), the figure is 2100 nM.
As for `CC1=C(C(=O)N2CCC[C@H]2c2ccc(F)cc2)[C@@H](c2ccc(Cl)c(Cl)c2)n2nccc2N1` [BMS-394136], the clearance (in general, a measure of how efficiently the substance is removed, as volume per time) in data set [2] was 35 mL/min/kg; in [11] it was 42 mL/min/kg. Besides, the fraction unbound (in general, free concentration divided by total concentration) in [3] worked out at 0.03. In the data set with Oryctolagus cuniculus [4], this compound showed a concentration of 7 µM. Further, the Activity in the data set with Oryctolagus cuniculus [5] is listed as 0.13%; with Oryctolagus cuniculus [6], 0.37%; in the data set on Oryctolagus cuniculus [8], 1.37%; with Oryctolagus cuniculus [10] it was 6.95%. Moreover, the half-life was 34.2 min in data set [7] and 90 min in data set [9]. In addition, 50 nM corresponded to half-maximal inhibition in [1] (IC50). For the same compound, the Vd is 1.6 L/kg in [12] and 2.1 L/kg in data set [15]. Also, the bioavailability (commonly dose-corrected exposure relative to a reference, in per cent) in data set [13] worked out at 51%; in [14] it was 37%.
In data set [1], `CC1=C(C(=O)N2CCC[C@H]2c2nc(C)no2)C(c2ccc(Cl)c(Cl)c2)n2nccc2N1` (stereo in doubt; 13b) showed an IC50 of 160 nM.
The same measure, in the same setting: with `CC1=C(C(=O)N2CCC[C@H]2c2nc(C)c(C)s2)C(c2ccc(Cl)c(Cl)c2)n2nccc2N1` (some centres undefined) the figure was 300 nM.
With `CC1=C(C(=O)N2CCC[C@H]2c2cc(C)no2)C(c2ccc(Cl)c(Cl)c2)n2nccc2N1` (stereo in doubt; 20a) [listing 2 of 2 here], in data set [1], the inhibition was 21%.
